Source: patent US20050119288A1, “Dosing schedule for a novel anticancer agent” (Pfizer Inc, priority 2003, published 2005)

Assays:
[1] = Pharmacokinetics in MDA-MB-453 tumor-bearing mice; type: in vivo; details: day 29; for Cave0-4 h / AUC(0-t) / Cmax: PO; for AUC(0-t) / Cmax: female, athymic, mouse, blood, po; for AUC(0-t): read-out: AUC0-4 h; for Cmax: read-out: Cmax 0.5 h
Experimental: (§1) Study Design: Exponentially growing MDA-MB-453 cells (DMEM/F12 with 10% FBS, and pen/strep [Gibco]) were harvested and inoculated SC (5 million cells/animal) into female athymic mice. MDA-MB-453 tumor bearing mice (˜100 mm^3 in size, N=64) were randomized in 8 groups consisting 8 animals each. Animals were treated with vehicle (PO, QD or BID) or the test compound (PO, QD or BID) as described in Table 6. The tumor measurements and body weight changes were obtained on days 1, 3, 7, 10, 14, 17, 21, 24, and 29. Tumor volume was calculated by the following formula: Tumor volume (mm^3)═(W×W)/2×L (L=length & W=width). Blood samples (˜50 μl) were isolated at 0.5, 1, 2, 4 and 8 hrs after dosing on day 29 for PK-analysis. Tumors were isolated at 0.5 hr post-dosing on day 29 for PD-analysis by ELISA.

MDA-MB-453 tumors = assay: MDA-MB-453 xenograft tumor growth in athymic mice; type: in vivo, human; details: PO; for % Growth inhibition: 29 days
Text: The in vivo anti-tumor activity of the compounds for use in the methods of the present invention can be determined by the amount of inhibition of tumor growth by a test compound relative to a control. The tumor growth inhibitory effects of various compounds can be measured according to the method of Corbett T. H., et al., “Tumor Induction Relationships in Development of Transplantable Cancers of the Colon in Mice for Chemotherapy Assays, with a Note on Carcinogen Structure”, Cancer Res., 35, 2434-2439 (1975) and Corbett T. H., et al., “A Mouse Colon-tumor Model for Experimental Therapy”, Cancer Chemother. Rep. (Part 2)”, 5, 169-186 (1975), with slight modifications. Tumors can be induced in the left flank of mice by subcutaneous (sc) injection of 1-5 million log phase cultured tumor cells suspended in 0.1 ml RPMI 1640 medium. After sufficient time has elapsed for the tumors to become palpable (˜100-150 mm^3 in size/5-6 mm in diameter) the test animals (athymic female mice) are treated with test compound (formulated at a concentration of 10 to 15 mg/ml in 5 Gelucire or 0.5% methyl cellulose) by the intravenous (iv) or oral (po) route of administration once or twice daily for 7 to 29 consecutive days. In order to determine an anti-tumor effect, the tumor is measured in millimeters with a Vernier caliper across two diameters and the tumor size (mm^3) is calculated using the formula: Tumor size (mm^3)=(W×W)/2×L (L=length and W=width), according to the methods of Geran, R. I., et al. “Protocols for Screening Chemical Agents and Natural Products Against Animal Tumors and Other Biological Systems”, Third Edition, Cancer Chemother. Rep., 3, 1-104 (1972). Results are expressed as percent inhibition, according to the formula: Inhibition Growth (%)=[100-{(% Growth of Treated/% Growth of Control)×100}]. The flank site of tumor implantation provides reproducible dose/response effects for a variety of chemotherapeutic agents, and the method of measurement (tumor diameter) is a reliable method for assessing tumor growth rates.
as §1
Statistical Analysis: ANOVA was conducted on the percentage growth data and planned comparisons were conducted between like-doses. The data were log transformed for the analysis due to the distribution of the values. The Dunnett-Tamahane procedure was used for the multiple comparison analysis.

[2] = Body weight and tolerability, BT-474 study; type: in vivo, mice; details: PO
Experimental: (§2) Exponentially growing BT-474 cells (RPMI 1640 with 10 mM HEPES, 10% FBS, and pen/strep [Gibco]) were harvested and inoculated SC (5 million cells/animal) into female athymic mice. Trochar pieces of BT-474 tumors were then implanted into the right flank of animals. BT-474 tumor bearing mice (50-320 mm^3 in size, N=40) were randomized in 7 groups consisting 5-6 animals each. Animals were treated with vehicle (PO, BID) or the test compound (PO, QD or BID) as described in Table 4. The tumor measurements and body weight changes were obtained on days 1, 6, 11, 15 and 22. Tumor volume was calculated by the following formula: Tumor volume (mm^3)═(W×W)/2×L (L=length & W=width). Blood samples (˜50 μl) were isolated at 0.5, 1, 2, 4 and 8 hrs after dosing on day 22 for PK-analysis. Tumors were isolated at 0.5 hr post-dosing on day 22 for PD-analysis by ELISA.

[3] = Pharmacokinetics in BT-474 tumor-bearing mice; type: in vivo; details: for Cave0-4 h: PO, day 22; for AUC(0-t) / Cmax: female, athymic, mouse, blood, po; for Cmax: day 22, read-out: Cmax 0.5 h
Experimental: as §2

## COCC(=O)NC/C=C/c1ccc2ncnc(Nc3ccc(Oc4ccc(C)nc4)c(C)c3)c2c1 [Test Compound, E-2-Methoxy-N-(3-{4-(3-methyl-4-(6-methyl-pyridin-3-yloxy)-phenylamino)-quinazolin-6-yl}-allyl)-acetamide]
[1]; 25 mg/kg, BID
  Cave0-4 h: 215 ng/mL
  AUC(0-t): 857 ng·h/mL
  Cmax: 952 ng/mL
[1]; 50 mg/kg, BID
  Cave0-4 h: 509 ng/mL
  AUC(0-t): 2040 ng·h/mL
  Cmax: 2390 ng/mL
[1]; 50 mg/kg, QD
  Cave0-4 h: 591 ng/mL
  AUC(0-t): 2360 ng·h/mL
  Cmax: 2760 ng/mL
[1]; 100 mg/kg, BID
  Cave0-4 h: 1710 ng/mL
  AUC(0-t): 6840 ng·h/mL
  Cmax: 6870 ng/mL
[1]; 100 mg/kg, QD
  Cave0-4 h: 3120 ng/mL
  AUC(0-t): 12500 ng·h/mL
  Cmax: 9770 ng/mL
[1]; 200 mg/kg, QD
  Cave0-4 h: 6510 ng/mL
  AUC(0-t): 26100 ng·h/mL
  Cmax: 16700 ng/mL
[1]
  Cave0-4 h, 200 mg/kg QD group relative to 100 mg/kg BID group: 3.8 fold
  Cmax, 100 mg/kg QD group relative to 50 mg/kg QD and 50 mg/kg BID groups: approximately 4 fold
  Cmax, 200 mg/kg QD group relative to 100 mg/kg BID group: 2.4 fold
MDA-MB-453 tumors; BID 25 mg/kg (Total Daily Dose = 50 mg/kg)
  % Growth inhibition: 19%
MDA-MB-453 tumors; BID 25 mg/kg
  Tumor volume Day 1 (Mean ± SE): 107 ± 4 mm^3
  Tumor volume Day 29 (Mean ± SE): 252 ± 24 mm^3
MDA-MB-453 tumors; BID 50 mg/kg (Total Daily Dose = 100 mg/kg)
  % Growth inhibition: 66%
MDA-MB-453 tumors; BID 50 mg/kg
  Tumor volume Day 1 (Mean ± SE): 107 ± 4 mm^3
  Tumor volume Day 29 (Mean ± SE): 164 ± 13 mm^3
MDA-MB-453 tumors; BID 100 mg/kg (Total Daily Dose = 200 mg/kg)
  % Growth inhibition: 83%
MDA-MB-453 tumors; BID 100 mg/kg
  Tumor volume Day 1 (Mean ± SE): 107 ± 4 mm^3
  Tumor volume Day 29 (Mean ± SE): 137 ± 6 mm^3
MDA-MB-453 tumors; QD 50 mg/kg
  % Growth inhibition: 38%
  Tumor volume Day 1 (Mean ± SE): 107 ± 4 mm^3
  Tumor volume Day 29 (Mean ± SE): 213 ± 19 mm^3
MDA-MB-453 tumors; QD 100 mg/kg
  % Growth inhibition: 63%
  Tumor volume Day 1 (Mean ± SE): 107 ± 4 mm^3
  Tumor volume Day 29 (Mean ± SE): 175 ± 14 mm^3
MDA-MB-453 tumors; QD 200 mg/kg
  % Growth inhibition: 100%
  Tumor volume Day 1 (Mean ± SE): 107 ± 4 mm^3
  Tumor volume Day 29 (Mean ± SE): 108 ± 9 mm^3
[2]; BID 50 mg/kg
  average body weight Day 1: 24 g
[2]; BID, 15 mg/kg
  average body weight Day 1: 24 g
  average body weight Day 22: 29 g
[2]; BID, 30 mg/kg
  average body weight Day 1: 26 g
  average body weight Day 22: 30 g
[2]; BID, 50 mg/kg
  average body weight Day 22: 28 g
[2]; QD 50 mg/kg
  average body weight Day 1: 25 g
[2]; QD, 15 mg/kg
  average body weight Day 1: 25 g
  average body weight Day 22: 29 g
[2]; QD, 30 mg/kg
  average body weight Day 1: 23 g
  average body weight Day 22: 27 g
[2]; QD, 50 mg/kg
  average body weight Day 22: 29 g
[2]; QD or BID, 22 days
  tolerability, body weight loss or animal mortality: well tolerated and there was no body weight loss or animal mortality
[3]; 15 mg/kg, BID
  Cave0-4 h: 120 ng/mL
  Cmax: 616 ng/mL
[3]; 30 mg/kg, BID, estimated based on the extrapolated concentration at 4 hr from 2 hr and 8 hr exposures
  Cave0-4 h: 360 ng/mL
[3]; 30 mg/kg, QD, estimated based on the extrapolated concentration at 4 hr from 2 hr and 8 hr exposures
  Cave0-4 h: 320 ng/mL
[3]; 50 mg/kg, BID
  Cave0-4 h: 1320 ng/mL
  Cmax: 6170 ng/mL
[3]; 50 mg/kg, QD, estimated based on the extrapolated concentration at 4 hr from 2 hr and 8 hr exposures
  Cave0-4 h: 1060 ng/mL
[3]; 15 mg/kg, BID, day 22, read-out: AUC0-4 h
  AUC(0-t): 480 ng·h/mL
[3]; 15 mg/kg, QD
  Cmax: 250 ng/mL
[3]; 30 mg/kg, BID, day 22, estimated based on the extrapolated concentration at 4 hr from 2 hr and 8 hr exposures, read-out: AUC0-4 h
  AUC(0-t): 1440 ng·h/mL
[3]; 30 mg/kg, BID
  Cmax: 1570 ng/mL
[3]; 30 mg/kg, QD, day 22, estimated based on the extrapolated concentration at 4 hr from 2 hr and 8 hr exposures, read-out: AUC0-4 h
  AUC(0-t): 1280 ng·h/mL
[3]; 30 mg/kg, QD
  Cmax: 1800 ng/mL
[3]; 50 mg/kg, BID, day 22, read-out: AUC0-4 h
  AUC(0-t): 5280 ng·h/mL
[3]; 50 mg/kg, QD, day 22, estimated based on the extrapolated concentration at 4 hr from 2 hr and 8 hr exposures, read-out: AUC0-4 h
  AUC(0-t): 4220 ng·h/mL
[3]; 50 mg/kg, QD
  Cmax: 5890 ng/mL
